Test results reported in patent publication US8889731B2, “Compounds, compositions and methods for repelling blood-feeding arthropods and deterring their landing and feeding” (Contech Enterprises Inc., priority 2007, dated 2014).

What was measured:
Aedes aegypti = experiment: Arm-in-cage repellent/deterrent bioassay on exposed human forearm (modified WHO protocol), Aedes aegypti; format: in vivo; details: for pest or weed control at 0.5 mg/cm2 / pest or weed control at 0.1 mg/cm2: Aedes aegypti, topical, (C-T)/C x 100 at time of failure, read-out: Percent repellence
Method: (§1) Candidate repellents and deterrents were bioassayed according to a modified protocol from the World Health Organization (1996). At least 1 hour prior to each bioassay, 75 host-seeking non blood-fed, nulliparous, 5- to 8-day-old female Aedes aegypti, Anopheles gambiae or Culex quinquefasciatus were placed into a wood-framed cage (26.5 cm on each side and 42.5 cm high) with a wooden floor, screened mesh sides and top, and a clear acrylic front fitted with a cotton stockinette sleeve (10 cm diameter). The test subject's arm was covered with an elbow-length polyethylene glove with an excised patch (16.6 cm long, 6 cm wide) to expose the ventral forearm of the test subject. Candidate deterrents were formulated in mineral (paraffin) oil and applied to the exposed forearm 5 min prior to inserting the arm into the cage. The inserted arm remained in the cage for 3 min every 30 min. Prior to each 3-min bioassay period, the hand of the untreated arm was inserted into the cage to ascertain that it received 10 bites within 30 sec as an indication of “biting pressure”.
(§2) The bioassay was terminated when the treated arm received ≧2 bites in one 3-min bioassay period or one bite in each of two consecutive bioassay periods. The time elapsed from experiment initiation to first bite was recorded as deterrent failure or complete protection time.
(§3) N,N-diethyl-m-toluamide formulated in ethanol at a corresponding dose served as a positive control, and mineral oil by itself served as a negative control. On each day, only one candidate compound was tested, ensuring that any residual material in the chamber had disappeared before the next bioassay.
To determine the repellence and deterrence of 8-allylsulfanyloctan-1-ol against Aedes aegypti, a 5%, 10% or 25% formulation of 8-allylsulfanyloctan-1-ol in mineral oil was applied in Experiments 1-3 at a dose of 1.5 mg (total composition) per cm^2 to the skin of the test person, and was bioassayed according to the protocol described under EXAMPLE 2. In Experiment 4, mineral oil by itself served as a negative control and was bioassayed at the same dose (1.5 mg per cm^2) as in Experiments 1-3. Each of Experiments 1-4 was replicated four times.
To compare the repellence and deterrence against Aedes aegypti caused by 8-allylsulfanyloctan-1-ol as a single active ingredient and by 8-allylsulfanyloctan-1-ol in combination with vanillin as a second active ingredient, we tested a 6.7% emulsion of vanillin (Experiment 14), a 6.7% emulsion of 8-allylsulfanyloctan-1-ol (Experiment 15), and a 13.4% emulsion of 8-allylsulfanyloctan-1-ol plus vanillin (1:1 ratio) (Experiment 16). 8-Allylsulfanyloctan-1-ol and vanillin were formulated in Emulsion No. 1 (see EXAMPLE 9). In each of Experiments […], test stimuli were applied at a dose of 1.5 mg per cm^2 to the skin of the test person, and were bioassayed according to the protocol described under EXAMPLE 2. In Experiment 17, Emulsion No. 1 served as a positive control and was tested at the same dose (1.5 mg per cm^2) as in Experiments 14-16.
To be able to compare the repellence and deterrence caused by N,N-diethyl-m-toluamide and by 8-allylsulfanyloctan-1-ol plus vanillin in Emulsion No. 1 (EXAMPLE 9), Experiment 26 tested a 6.7% formulation of N,N-diethyl-m-toluamide in ethanol (the best formulant for DEET) for protection from bites by Aedes egypti. In each replicate, a dose of 1.5 mg per […] was applied to the skin of the test person and bioassayed according to the protocol described under EXAMPLE 2.
To be able to further compare the deterrence caused by N,N-diethyl-m-toluamide with that caused by 8-allylsulfanyloctan-1-ol plus vanillin, Experiment 27 tested a 10.4% formulation of N,N-diethyl-m-toluamide in ethanol, and Experiment 28 tested 8-allylsulfanyloctan-1-ol (10.4%) plus vanillin (7.9%) in Emulsion No. 2 (EXAMPLE 10). […]

Culex quinquefasciatus = experiment: Arm-in-cage repellent/deterrent bioassay on exposed human forearm (modified WHO protocol), Culex quinquefasciatus; format: in vivo; details: 6.7% single active in Emulsion No. 1 (FIG. 9 legend: 2.0%), 1.5 mg per cm^2, Experiments 22, 23
Method: as §1, §2, §3
To determine the repellence and deterrence of 8-allylsulfanyloctan-1-ol against Culex quinquefasciatus, a 2% and 5% or a 10% formulation of 8-allylsulfanyloctan-1-ol in mineral oil was applied in Experiments 9-11 at a dose of 1.5 mg per cm^2 to the skin of the test person, and was bioassayed according to the protocol described under EXAMPLE 2. In Experiment 12, mineral oil by itself served as a negative control and was tested at the same dose (1.5 mg per cm^2) as in Experiments […]. Each of Experiments 9-11 was replicated 4 times.
To compare the repellence and deterrence against Culex quinquefasciatus caused by 8-allylsulfanyloctan-1-ol as a single active ingredient and by 8-allylsulfanyloctan-1-ol in combination with vanillin as a second active ingredient, we tested a 6.7% emulsion of vanillin (Experiment 22), a 6.7% emulsion of 8-allylsulfanyloctan-1-ol (Experiment 23) and a 13.4% emulsion of 8-allylsulfanyloctan-1-ol plus vanillin (1:1 ratio) (Experiment 24). 8-Allylsulfanyloctan-1-ol and vanillin were formulated in Emulsion No. 1 (see EXAMPLE 9). In each of Experiments […], test stimuli were applied at a dose of 1.5 mg per cm^2 to the skin of the test person, and were bioassayed according to the protocol described under EXAMPLE 2. In Experiment 25, Emulsion No. 1 served as a positive control and was tested at the same dose (1.5 mg per cm^2) as in Experiments 22-24. Each of Experiments 22-25 was replicated three times.

Anopheles gambiae = experiment: Arm-in-cage repellent/deterrent bioassay on exposed human forearm (modified WHO protocol), Anopheles gambiae; format: in vivo
Method: as §1, §2, §3
To determine the repellence and deterrence of 8-allylsulfanyloctan-1-ol against Anopheles gambiae, a 2%, 5% or a 10% formulation of 8-allylsulfanyloctan-1-ol in mineral oil was applied in Experiments 5-7 at a dose of 1.5 mg per cm^2 to the skin of the test person, and was bioassayed according to the protocol described under EXAMPLE 2. In Experiment 8, mineral oil by itself served as a negative control and was tested at the same dose (1.5 mg per cm^2) as in Experiments 5-7. Each of Experiments 5-8 was replicated 4 times.
To be able to compare the repellence and deterrence caused N,N-diethyl-m-toluamide (DEET), and by 8-allylsulfanyloctan-1-ol, Experiment 13 tested a 2% formulation of N,N-diethyl-m-toluamide in ethanol (the best formulant for this compound) for protection from bites by Anopheles gambiae. A dose of 1.5 mg per cm^2 was applied to the skin of the test person and bioassayed according to the protocol described under EXAMPLE 2.
To compare the repellence and deterrence against Anopheles gambiae caused by 8-allyl-sulfanyloctan-1-ol as a single active ingredient and by 8-allylsulfanyloctan-1-ol in combination with vanillin as a second active ingredient, we tested a 6.7% emulsion of vanillin (Experiment 18), a 6.7-% emulsion of 8-allylsulfanyl-octan-1-ol (Experiment 19) and a 13.4% emulsion of 8-allylsulfanyloctan-1-ol plus vanillin (1:1 ratio) (Experiment 20). 8-Allylsulfanyloctan-1-ol and vanillin were formulated in Emulsion No. 1 (see EXAMPLE 9). In each of Experiments 18-20, test stimuli were applied at a dose of 1.5 mg per cm^2 to the skin of the test person, and were bioassayed according to the protocol described under EXAMPLE 2. In Experiment 21, Emulsion No. 1 served as a positive control and was tested at the same dose (1.5 mg per cm^2) as in experiments 18-20. Each of Experiments 18-21 was replicated three times.

mosquitoes = experiment: General bioassay procedure with garlic oil, its components and fractions (mosquito species not given); format: in vivo
Method: as §1, §2, §3
Garlic oil (Allium sativum—Mexico; Clearwater Soap Works, Box 1775 RR1, Clearwater, BC V0E 1N0, Canada) was formulated in mineral oil and tested using the general bioassay procedure described in EXAMPLE 2 at a dose of 0.1 mg per cm^2 of arm surface. It expressed repellence and deterrence for ˜30 min.
Some of the 10 components in FIG. 1 were bioassayed singly (see general bioassay procedure) and in various combinations, all of which were as deterrent to mosquitoes as garlic oil.
To determine the most deterrent component(s) in garlic oil, it was fractionated by HPLC into four fractions, each containing one or more of the EAD-active components (compounds 1-10 in FIG. 1 and 11-14 in TABLE 2). Each fraction was then bioassayed and shown to be similarly effective in repelling and deterring mosquitoes.
(§4) Components with high molecular weight (>250 daltons) are advantageous in that they: 1) dissipate slowly from treated surfaces; 2) provide long-lasting protection against mosquitoes and 3) convey little, if any, offensive smell. The relative abundance of such components was enhanced by treating garlic oil under vacuum, thus stripping away lower-boiling components. In GC-EAD analyses of the high-boiling residue, four components elicited responses from mosquito antennae.

[1] = system: male or female Aedes aegypti antennae; experiment: Coupled gas chromatographic-electroantennographic detection (GC-EAD) of garlic oil extract
Method: FIG. 1 illustrates flame ionization detector (FID) and electroantennograhic detector (EAD: male or female Aedes aegypti antennae) responses to aliquots of the low boiling temperature portion of garlic oil extract. Chromatography: Hewlett Packard (HP) gas chromatograph equipped with a fused silica column (30 m×0.32 mm ID) coated with DB-5; injector and detector temperature: 250° C.; temperature program: 50° C.
Aliquots of garlic oil extracts were then subjected to coupled gas chromatographic-electroantennographic detection (GC-EAD) analysis. Fourteen components (10 shown in FIG. 1) elicited responses from female or male mosquito antennae. Some of these components were isolated by high-performance liquid chromatography (HPLC) for identification by nuclear magnetic resonance spectroscopy (NMR). Other components were identified (compounds 11-14 in TABLE 2) by coupled GC-mass spectrometry and by retention index calculations. […] Four of the 10 components in FIG. 1 were tentatively identified by comparing their mass spectra and retention indices with those reported in the literature (Block et al. 1998).
as §4

[2] = Dosage 0.1 mg/cm^2, 0 = immediate failure

| SMILES | pest or weed control at 0.5 mg/cm2 (Aedes aegypti; Dosage 0.5 mg/cm^2) [%] | Failure time (Aedes aegypti; Dosage 0.5 mg/cm^2) [min] | pest or weed control at 0.1 mg/cm2 (Aedes aegypti; Dosage 0.1 mg/cm^2) [%] | Failure time (Aedes aegypti; [2]) [min] | other results |
| --- | --- | --- | --- | --- | --- |
| C=CCSCCCCCCSCC=C [Compound 18, 4,11-dithiatetradeca-1,13-diene] | 93 | 67 | – | – | – |
| C=CCSSC/C=C/c1ccccc1 [Compound 16, (E)-4,5-dithia-1,7-octadien-1-yl-benzene] | 92 | 36 | 89 | 35 | – |
| COc1cc(C=O)ccc1O [vanillin] | – | – | – | – | protection from bites, average duration (Culex quinquefasciatus): 88 min; protection from bites, average duration (Anopheles gambiae; 6.7% single active in Emulsion No. 1 (FIG. 8 legend: 2.0%), 1.5 mg per cm^2, Experiments 18, 19): 110 min; protection from bites, average duration (Aedes aegypti; 6.7% single active in Emulsion No. 1, 1.5 mg per cm^2, Experiments 14, 15): 44 min |
| C=CCSCCCCCCCCCO [Compound 22, 9-allylsulfanylnonan-1-ol] | – | – | – | – | Failure time (Aedes aegypti; Dosage 0.05 mg/cm^2): 33 min |
| C=CCSSCC(C)SSCC=C (centres unmarked) [Compound 12, 6-methyl-4,5,8,9-tetrathiadodeca-1,11-diene] | 97 | 102 | 87 | 0 | repellent and deterrent effect in bioassays (in words) (mosquitoes): strong repellent and deterrent effect; electroantennographic (EAD) response of mosquito antennae [1]: Antennal stimulatory |
| C=CCSSCC1CCC=CS1 (centres unmarked) [Compound 13, 2-(2,3-dithia-5-hexenyl)-3,4-dihydro-2(H)-thiopyran] | – | – | – | – | repellent and deterrent effect in bioassays (in words) (mosquitoes): strong repellent and deterrent effect; electroantennographic (EAD) response of mosquito antennae [1]: Antennal stimulatory |
| C=CCOCCCCCCCCCCOCC=C [Compound 20, 1,10-bis-allyloxy-decane] | – | – | 81 | 0 | had any repellence or deterrence in bioassays (Aedes aegypti; see TABLE 2, 0.1 mg/cm^2): neither |
| C=CCSSc1ccccc1SSCC=C [Compound 15, 1,2-bis-(1,2-dithia-4-pentenyl)-benzene] | – | – | 92 | 34 | – |
| C=CCSCCCSCC=C [Compound 17, 4,8-dithiaundeca-1,10-diene] | 97 | 36 | 89 | 0 | – |
| C=CCSCCCCCCCCSCC=C [Compound 19, 4,13-dithiahexadeca-1,15-diene] | 97 | 102 | 93 | 0 | – |
| C=CCSCCCCCCC(C)O (centres unmarked) [Compound 23, 8-allylsulfanyloctan-2-ol] | – | – | – | – | Failure time (Aedes aegypti; Dosage 0.05 mg/cm^2): 99 min |
| CCN(CC)C(=O)c1cccc(C)c1 [N,N-diethyl-m-toluamide, reference compound] | – | – | – | – | duration of protection relative to 2% 8-allylsulfanyloctan-1-ol (297 min) (Anopheles gambiae; 2% DEET in ethanol vs 2% 8-allylsulfanyloctan-1-ol in mineral oil): one sixth; protection from bites, average duration (Anopheles gambiae; 2% formulation in ethanol, 1.5 mg per cm^2, Experiment 13): 66 min; protection from bites, average duration (Aedes aegypti; 6.7% formulation in ethanol, 1.5 mg per cm^2, Experiment 26): 197 min; protection from bites, average duration (Aedes aegypti; 10.4% formulation in ethanol, 1.5 mg per cm^2, Experiment 27): 231 min |
| C=CCSSCC1CC=CSC1 (centres unmarked) [Compound 14, 3-(2,3-dithia-5-hexenyl)-3,4-dihydro-2(H)-thiopyran] | – | – | – | – | repellent and deterrent effect in bioassays (in words) (mosquitoes): strong repellent and deterrent effect; electroantennographic (EAD) response of mosquito antennae [1]: Antennal stimulatory |
